Measured values published in PMC11417994, “Cyclohexanediamine Triazole (CHDT) Functionalization Enables Labeling of Target Molecules with Al^18F/^68Ga/^111In” (Bioconjugate Chemistry, 2024).
“And” between values parts separate entries of the source, which are not always exact repeats. Equal values may be shown once. Each block holds one molecule with its values, some of them ahead of it.

Experiments:
PSMA [1] = molecular target: T1, PSMA (Homo sapiens, UniProt Q04609); assay: Competition binding assay, LNCaP cell homogenates, radioligand [177Lu]Lu-PSMA-617; conditions: nonlabeled compounds; [177Lu]Lu-PSMA-617 12 nM; 37 °C, 60 min; Table 2 mean (SEM), Table S3 individual experiments and mean
T1 construct: Detection of endogenous PSMA expression in LNCaP and PC3 cells relative to β-actin expression by Western; host or cells: LNCaP human prostate carcinoma cells (monolayer, spheroids or Potter-Elvehjem homogenates)
T1 sequence (Q04609 whole entry): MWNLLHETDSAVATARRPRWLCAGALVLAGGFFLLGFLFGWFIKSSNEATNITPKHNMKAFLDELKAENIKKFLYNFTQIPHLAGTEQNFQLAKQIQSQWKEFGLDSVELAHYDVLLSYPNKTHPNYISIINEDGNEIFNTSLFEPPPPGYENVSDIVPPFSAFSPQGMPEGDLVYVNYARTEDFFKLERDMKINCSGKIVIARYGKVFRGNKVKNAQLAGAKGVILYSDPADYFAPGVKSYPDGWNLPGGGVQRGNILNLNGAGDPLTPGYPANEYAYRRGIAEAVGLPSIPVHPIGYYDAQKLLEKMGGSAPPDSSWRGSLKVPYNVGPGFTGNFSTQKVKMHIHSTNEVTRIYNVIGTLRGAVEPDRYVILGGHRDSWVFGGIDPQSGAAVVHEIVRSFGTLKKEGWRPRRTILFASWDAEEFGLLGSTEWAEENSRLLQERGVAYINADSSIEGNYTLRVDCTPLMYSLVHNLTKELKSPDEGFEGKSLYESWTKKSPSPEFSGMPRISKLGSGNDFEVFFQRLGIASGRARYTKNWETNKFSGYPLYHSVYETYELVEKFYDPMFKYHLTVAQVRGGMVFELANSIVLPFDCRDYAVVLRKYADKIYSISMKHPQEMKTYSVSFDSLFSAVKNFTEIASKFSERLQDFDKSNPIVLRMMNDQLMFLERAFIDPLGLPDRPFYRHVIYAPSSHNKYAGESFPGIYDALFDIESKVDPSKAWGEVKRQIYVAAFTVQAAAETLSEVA
Protocol: The binding affinity of the nonlabeled CHDT-PSMA-1/2/3, PSMA-1007, PSMA-617, and KuE was assessed in competition binding assays using LNCaP cell homogenates (∼1 × 10^6 cells/mL using Potter-Elvehjem) and the radioligand [^177Lu]Lu-PSMA-617 (n = 5 for CHDT-PSMA-1; n = 4 for CHDT-PSMA-2/3; n = 2 for PSMA-1007; n = 8 for PSMA-617; n = 6 for KuE). […] The assays were performed in a final volume of 200 μL. The incubation was stopped by washing the homogenate with cold PBS four times using a filter (Whatman GF/C, 90 min presoaked in 0.3% polyethylenimine) in a cell harvester (Brandel, USA). The radioactivity bound to the filter was measured in a gamma counter. Filter binding was determined for adjacent samples without cell homogenate. The experiments were performed two to four times in triplicates or quadruplicates. Inhibitory constants (Ki) were derived from nonlinear regression according to the model of “One site – Fit Ki” as implemented in GraphPad Prism 10. The Kd value of [^177Lu]Lu-PSMA-617 was determined in saturation binding assays using LNCaP cell homogenates to be 15.2 (±2.1) nM.

PSMA [2] = molecular target: T1, PSMA; assay: Saturation binding (surface-bound and internalized), intact LNCaP cells as monolayer
Description: (§1) In addition to assessing the binding affinities for nonlabeled CHDT-PSMA-1/2/3, we sought to characterize the saturation binding of the Al^18F-, ^68Ga-, and ^111In-labeled compounds using LNCaP cells cultured in monolayers and as spheroids. The saturation binding curves for Al[^18F]F-CHDT-PSMA-1/2/3 are depicted in Figure 3, while the graphs for [^18F]PSMA-1007 and ^68Ga- and ^111In-labeled CHDT-PSMA-1/2/3 can be found in Figures S7–S9 in the Supporting Information. The binding parameters (Kd and Bmax) for Al[^18F]F-CHDT-PSMA-1/2/3 and [^18F]PSMA-1007 are summarized in Table 3 (for the ^68Ga- and ^111In-labeled compounds see Tables S4 and S5 in the Supporting Information). For the saturation binding assays, we recorded surface-bound radioligand (named “binding”), which refers to bound radioligand that can be removed by acid wash, and internalized or acid-resistant radioligand (named “internalization”), which refers to radioligand that remains cell-bound after acid wash. Consequently, two saturation binding plots were obtained and two sets of binding parameters (Kd/Bmax and Kd,int/Bmax,int) were derived.
(§2) For saturation assays in well plates, monolayers of LNCaP (sowing 5 × 10^4 cells/well in 48-well plates 2 days before the assay), as well as LNCaP spheroids were incubated with radiolabeled CHDT-PSMA-1/2/3 and PSMA-1007 (0.2 nM to 100 nM) with adjacent samples receiving KuE (0.8 mM) at 37 °C for 2 h. The number of experiments can be derived from the data in the Tables S4, S5, and S7 in the Supporting Information. After removing the incubation medium and washing of cells with ice-cold PBS (containing Mg^2+ and Ca^2+) the surface-bound activity was stripped with 4 °C cold acid-wash buffer (0.2 M glycine, 0.15 M NaCl, pH 3.0) for 10 min. The acid wash buffer was transferred from the wells to measuring tubes, as was the PBS buffer after washing once. Cytosolic activity (internalized radioligand) was determined after treatment with cell lysis buffer (1% SDS in 0.1 M NaOH) at 37 °C for 30 min. Cell surface and cytosolic activity were measured separately in a gamma counter. Time-depending internalization assays were performed only with cells in monolayer. The incubation (radioligand concentration 13 nM) for these assays was terminated after 10 min, 1 and 3 h, with ^111In and ^177Lu additionally after 24 and 48 h at 37 °C, respectively. During the internalization assays adjacent samples received KuE (0.8 mM) for PSMA blocking, methyl-β-cyclodextrin (MβCD; 3 mM) or KuE together with MβCD, 1 h before radioligand application. The number of experiments can be derived from the data of Figure S11 and associated table and from Table S8 in the Supporting Information.
(§3) Dissociations constants (Kd and Kd,int), as well as maximal binding capacities (Bmax and Bmax,int), were derived from specific binding data by nonlinear regression according to the model of “One site-specific binding” as implemented in GraphPad Prism 10. Protein content was determined using the bicinchoninic acid protein assay kit (Pierce, Thermo Scientific) to calculate the binding capacities in pmol/mg and for the time-depending internalization the internalized percent of administrated dose per μg protein (% AD/μg protein).

LNCaP tumor xenograft = assay: Small animal PET imaging, LNCaP tumor xenograft mouse model; assay type: in vivo, mice
Protocol: All animal experiments were performed in accordance with the German Animal Welfare regulations and were approved by the local ethics committee for animal experiments (DD24.1-51-31/449/49, Oct 26, 2018). A PSMA-positive prostate cancer xenograft model was generated by subcutaneous injection of human LNCaP cells into the right shoulder of 8–12 week-old male nude mice (Rj:NMRI-Foxn1^nu/nu, Janvier Laboratories, Le Genest-Saint-Isle, France). Imaging studies were performed when subcutaneous tumors reached a diameter of at least 6 mm. General anesthesia of the animals was induced and maintained by inhalation of 10% (v/v) desflurane in 30/70% (v/v) oxygen/air. Animals were continuously warmed at 37 °C during anesthesia.
Positron emission tomography (PET) was performed in vivo using the nanoScan PET/CT scanner (Mediso Medical Imaging Systems, Budapest, Hungary), especially suited for small animals. Each animal received 8–12 MBq of the reference compound [^18F]PSMA-1007 or the radioligands Al[^18F]F-CHDT-PSMA-1/2/3 in phosphate-buffered saline by intravenous injection via a tail vein catheter. At the time of injection, molar activities and radiochemical purities of the compounds were as follows: [^18F]PSMA-1007 (15 MBq/nmol, >99%); Al[^18F]F-CHDT-PSMA-1 (10 MBq/nmol, 99%); Al[^18F]F-CHDT-PSMA-2 (6.3 MBq/nmol, 98%); Al[^18F]F-CHDT-PSMA-3 (4.5 MBq/nmol, >99%). Specificity of target binding was assessed by blocking PSMA binding sites with 2-phosphonomethyl pentanedioic acid (2-PMPA), administered simultaneously with the radioligand at a dose of 50 mg/kg. With injection of the radioligand, emission of the annihilation photons was recorded continuously in coincidence mode of 1:5 for 120 min. A corresponding CT image was acquired with each PET scan and used for attenuation correction and anatomical referencing. From three-dimensional list mode data, events within the energy window of 400–600 keV were extracted and sorted into 36 time frames (f1–f36) with a sequence of 15 × 10 s, 5 × 30 s, 5 × 60 s, 4 × 300 s, 3 × 600 s, and 4 × 900 s. For each time frame, a PET image was reconstructed with the three-dimensional (3D) Tera-Tomo algorithm, with a voxel size of 0.4 mm, applying corrections for random events, scattering, attenuation, and decay.
Three-dimensional regions of interest (ROIs) were defined within an image series of selected time frames using fixed intensity thresholds for delineation of organs: bones at knee joint position (0–120 min, 55%), cardiac blood volume (0–1.7 min, 70%), gall bladder (0–120 min, 39%), intestine (0–120 min, 5%), kidneys (0–2.5 min, 15%), liver (0–2.5 min, 55%), muscle (0–120 min, 0%), parotid glands (0–120 min, 39%), tumor (0–120 min, 39%), and urinary bladder (0–120 min, 5%). Activity concentrations in tissue were determined as standardized uptake value (SUV = [MBq detected activity/mL tissue]/[MBq injected activity/g body weight]) and expressed as SUVmean (ROI-averaged). Time-activity curves were generated and analyzed using Prism (GraphPad Software, San Diego CA, USA). […] Areas under curves (AUC) were calculated using the trapezoid rule. Statistical significance of mean differences was tested by analysis of variance (ANOVA) using the Šidák test.

PSMA [3] = molecular target: T1, PSMA; assay: Time-depending internalization assay, LNCaP cells as monolayer; assay type: cell-based; conditions: individual experiments; for specific internalization in the presence of MβCD: MβCD 3 mM; for specific internalization: radioligand 13 nM
Protocol: as §2, §3

PSMA [4] = molecular target: T1, PSMA; assay: Saturation binding (surface-bound and internalized), LNCaP spheroids
Description: as §1
For the formation of spheroids, the LNCaP cells were incubated overnight in a normal culture bottle with biocompatible nanoparticles ([…] with 80 μL of a suspension consisting of Au, Fe2O3 and poly-L-lysine called Nanoshuttle, Greiner Bio-One GmbH, Germany). After harvesting and cell counting, 10,000 cells/well of a 24-well plate or 7,000 cells/well of a 96-well plate (cell-repellent plates) were sown. The well plates were placed on matching plates with button magnets (Greiner Bio-One GmbH, Germany). The magnetized LNCaP cells formed suitable spheroids that were used after 5 d.
as §2, §3

[5] = Al^18F-labeled conjugate or [18F]PSMA-1007, surface-bound
[6] = SUVmean ratio 105–120 min after injection, mean ± SD
[7] = Al^18F-labeled conjugate or [18F]PSMA-1007, acid-resistant fraction, read-out: Kd,int (internalization)

Ki (PSMA [1]): 4.1 nM and 2.59 nM and 5.55 nM and 5.49 nM and 4.57 nM and 3.33 nM and 4.02 nM and 3.71 nM and 4.2 nM
Molecule: O=C(O)CC[C@H](NC(=O)N[C@@H](CCCCNC(=O)[C@H](Cc1ccc2ccccc2c1)NC(=O)[C@H]1CC[C@H](CNC(=O)CN2CCN(CC(=O)O)CCN(CC(=O)O)CCN(CC(=O)O)CC2)CC1)C(=O)O)C(=O)O [PSMA-617]

Molecule: O=C(O)CC[C@H](NC(=O)N[C@@H](CCCCNC(=O)[C@H](Cc1ccc2ccccc2c1)NC(=O)c1ccc(CNC(=O)[C@H](CCC(=O)O)NC(=O)[C@H](CCC(=O)O)NC(=O)c2ccc(F)nc2)cc1)C(=O)O)C(=O)O [[^18F]PSMA-1007]
Kd (PSMA [2]; Al^18F-labeled conjugate or [18F]PSMA-1007, surface-bound, 37 °C, 2 h, read-out: Kd (binding)): 5.4 nM

Molecule: O=C(O)CC[C@H](NC(=O)N[C@@H](CCCCNC(=O)[C@H](Cc1ccc2ccccc2c1)NC(=O)c1ccc(CNC(=O)[C@H](CCC(=O)O)NC(=O)[C@H](CCC(=O)O)NC(=O)c2ccc([18F])nc2)cc1)C(=O)O)C(=O)O [[^18F]PSMA-1007]
Bmax (binding) (PSMA [2]; [5]): 1.11 pmol/mg
average SUVmean in bone tissue (LNCaP tumor xenograft; 120 min p.i.): 0.21
Tu/Blood (LNCaP tumor xenograft; [6]): 14 ± 3.0
Tu/Bone (LNCaP tumor xenograft; [6]): 18 ± 7.9
Tu/Kidney (LNCaP tumor xenograft; [6]): 0.5 ± 0.2
Tu/Liver (LNCaP tumor xenograft; [6]): 16 ± 6.8
Tu/Muscle (LNCaP tumor xenograft; [6]): 20 ± 6.9
specific internalization in the presence of MβCD (PSMA [3]; 10 min): 0.02232 % AD/µg protein and 0.008008 % AD/µg protein
specific internalization (PSMA [3]; 10 min): 0.03696 % AD/µg protein and 0.02616 % AD/µg protein
specific internalization in the presence of MβCD (PSMA [3]; 1 h): 0.1091 % AD/µg protein and 0.02833 % AD/µg protein and 0.1038 % AD/µg protein
specific internalization (PSMA [3]; 1 h): 0.07765 % AD/µg protein and 0.1071 % AD/µg protein and 0.1171 % AD/µg protein
specific internalization in the presence of MβCD (PSMA [3]; 3 h): 0.04566 % AD/µg protein and 0.1478 % AD/µg protein and 0.1495 % AD/µg protein
specific internalization (PSMA [3]; 3 h): 0.2295 % AD/µg protein and 0.1701 % AD/µg protein and 0.1562 % AD/µg protein

Bmax,int (internalization) (PSMA [2]; Al^18F-labeled conjugate or [18F]PSMA-1007, acid-resistant fraction): 1.02 ± 0.21 pmol/mg
Kd (PSMA [2]; [7]): 10.1 ± 5.9 nM
Bmax (binding) (PSMA [2]; [5]): 1.11 ± 0.06 pmol/mg
Ki (PSMA [1]): 2 nM and 1.39 nM and 1.7 nM
Kd (PSMA [4]; [7]): 25.8 ± 18.6 nM
Kd (PSMA [4]; Al^18F-labeled conjugate or [18F]PSMA-1007, surface-bound, read-out: Kd (binding)): 12.9 ± 1.2 nM
Molecule: PSMA-1007 [reference compound]
